Structures are written as SMILES.

Sequence of JNK3 (P53779 whole entry, species assumed): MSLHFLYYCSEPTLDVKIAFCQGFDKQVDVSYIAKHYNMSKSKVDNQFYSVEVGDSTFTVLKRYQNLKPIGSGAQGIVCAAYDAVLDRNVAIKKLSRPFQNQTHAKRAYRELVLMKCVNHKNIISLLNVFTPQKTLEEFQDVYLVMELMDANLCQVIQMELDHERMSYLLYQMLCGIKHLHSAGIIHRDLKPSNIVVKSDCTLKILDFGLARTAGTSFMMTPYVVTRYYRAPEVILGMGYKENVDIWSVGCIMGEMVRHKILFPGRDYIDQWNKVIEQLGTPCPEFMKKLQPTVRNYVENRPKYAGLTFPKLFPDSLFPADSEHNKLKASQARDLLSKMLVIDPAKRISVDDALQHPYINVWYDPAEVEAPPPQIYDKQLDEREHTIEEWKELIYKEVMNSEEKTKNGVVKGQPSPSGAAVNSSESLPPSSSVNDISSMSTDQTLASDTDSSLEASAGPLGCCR

The target in one assay is JNK3 (Homo sapiens, UniProt P53779). Description: Measurement of JNK3 enzyme activity. It counts as biochemical. The note with it: Table 1. From the text:
Experimental Example 1. Measurement of JNK3 Enzyme Activity
For the compound `NC(=O)C1Cc2nc(-c3ccc(F)c(C(F)(F)F)c3)n(-c3ccnc(NC4CCCN(C(=O)C5CC5)C4)n3)c2C1` (single isomer, unassigned) [Compound 23a], the IC50 is greater than 1000 nM.

As to `CNC(=O)C1Cc2nc(-c3ccc(F)c(C(F)(F)F)c3)n(-c3ccnc(NC4CCCN(C(=O)C5CC5)C4)n3)c2C1` (single isomer, unassigned) [Compound 26a], the IC50 is less than 30 nM.

Take `CCOC(=O)C1Cc2nc(-c3ccc(F)c(C(F)(F)F)c3)n(-c3ccnc(N[C@@H]4CCCN(C(=O)C5CC5)C4)n3)c2C1` (stereo partly drawn) [Compound 19a, ethyl 1-(2-(((R)-1-(cyclopropanecarbonyl)piperidin-3-yl)amino)pyrimidin-4-yl)-2-(4-fluoro-3-(trifluoromethyl)phenyl)-1,4,5,6-tetracyclopenta[d]imidazol-5-carboxylate]: the IC50 is less than 30 nM.

The compound `CCOC(=O)C1Cc2nc(-c3ccc(F)c(C(F)(F)F)c3)n(-c3ccnc(N[C@H]4CCN(C(=O)C5CC5)C4)n3)c2C1` (stereo partly drawn) [Compound 16a, ethyl 1-(2-(((S)-1-(cyclopropanecarbonyl)pyrrolidine-3-yl)amino)pyrimidin-4-yl)-2-(4-fluoro-3-(trifluoromethyl)phenyl)-1,4,5,6-tetracyclopenta[d]imidazol-5-carboxylate] came in with an IC50 greater than 1000 nM.

On to `CCOC(=O)C1Cc2nc(-c3ccc(F)c(C(F)(F)F)c3)n(-c3ccnc(N[C@H]4CCCN(C(=O)C5CC5)C4)n3)c2C1` (stereo partly drawn) [Compound 18a, ethyl 1-(2-(((S)-1-(cyclopropanecarbonyl)piperidin-3-yl)amino)pyrimidin-4-yl)-2-(4-fluoro-3-(trifluoromethyl)phenyl)-1,4,5,6-tetracyclopenta[d]imidazol-5-carboxylate], for which the concentration for half-maximal inhibition (IC50) was less than 30 nM.

The compound `NC(=O)C1Cc2nc(-c3ccc(F)c(C(F)(F)F)c3)n(-c3ccnc(N[C@@H]4CCN(C(=O)C5CC5)C4)n3)c2C1` (stereo partly drawn) [Compound 21a, 1-(2-(((R)-1-(cyclopropanecarbonyl)pyrrolidine-3-yl)amino)pyrimidin-4-yl)-2-(4-fluoro-3-(trifluoromethyl)phenyl)-1,4,5,6-tetracyclopenta[d]imidazol-5-carboxamide] returned an IC50 greater than 1000 nM.

The compound `CNC(=O)C1Cc2nc(-c3ccc(F)c(C(F)(F)F)c3)n(-c3ccnc(NC4CCCN(C(=O)C5CC5)C4)n3)c2C1` (single isomer, unassigned) [Compound 27a] returned an IC50 greater than 1000 nM.

In the case of `CNC(=O)C1Cc2nc(-c3ccc(F)c(C(F)(F)F)c3)n(-c3ccnc(N[C@H]4CCN(C(=O)C5CC5)C4)n3)c2C1` (stereo partly drawn) [Compound 24a, 1-(2-(((S)-1-(cyclopropanecarbonyl)pyrrolidine-3-yl)amino)pyrimidin-4-yl)-2-(4-fluoro-3-(trifluoromethyl)phenyl)-N-methyl-1,4,5,6-tetracyclopenta[d]imidazol-5-carboxamide], the concentration for half-maximal inhibition (IC50) is greater than 1000 nM.

Staying with this assay, now noted: Table 2.
Consider `CCOC(=O)C1Cc2nc(-c3ccc(Cl)c(Cl)c3)n(-c3ccnc(N[C@H]4CCCN(C(=O)C5CC5)C4)n3)c2C1` (stereo partly drawn) [Compound 18b, ethyl 1-(2-(((S)-1-(cyclopropanecarbonyl)piperidin-3-yl)amino)pyrimidin-4-yl)-2-(3,4-dichlorophenyl)-1,4,5,6-tetracyclopenta[d]imidazol-5-carboxylate], for which the IC50 was less than 30 nM.

Turning to `NC(=O)C1Cc2nc(-c3ccc(Cl)c(Cl)c3)n(-c3ccnc(N[C@@H]4CCCN(C(=O)C5CC5)C4)n3)c2C1` (stereo partly drawn) [Compound 23b, 1-(2-(((R)-1-(cyclopropanecarbonyl)piperidin-3-yl)amino)pyrimidin-4-yl)-2-(3,4-dichlorophenyl)-1,4,5,6-tetracyclopenta[d]imidazol-5-carboxamide], the concentration for half-maximal inhibition (IC50) was less than 30 nM.

Still in this assay, the particulars now being: Table 3.
The compound `NC(=O)C1Cc2nc(-c3ccc4ccccc4c3)n(-c3ccnc(N[C@H]4CCCN(C(=O)C5CC5)C4)n3)c2C1` (stereo partly drawn) [Compound 22c, 1-(2-(((S)-1-(cyclopropanecarbonyl)piperidin-3-yl)amino)pyrimidin-4-yl)-2-(naphthalen-2-yl)-1,4,5,6-tetracyclopenta[d]imidazol-5-carboxamide] registered an IC50 of less than 30 nM.

Regarding `CCOC(=O)C1Cc2nc(-c3ccc4ccccc4c3)n(-c3ccnc(N[C@@H]4CCN(C(=O)C5CC5)C4)n3)c2C1` (stereo partly drawn) [Compound 17c, ethyl 1-(2-(((R)-1-(cyclopropanecarbonyl)pyrrolidine-3-yl)amino)pyrimidin-4-yl)-2-(naphthalen-2-yl)-1,4,5,6-tetracyclopenta[d]imidazol-5-carboxylate], the IC50 was less than 30 nM.

Take `CNC(=O)C1Cc2nc(-c3ccc4ccccc4c3)n(-c3ccnc(N[C@H]4CCCN(C(=O)C5CC5)C4)n3)c2C1` (stereo partly drawn) [Compound 26c, 1-(2-(((S)-1-(cyclopropanecarbonyl)piperidin-3-yl)amino)pyrimidin-4-yl)-2-(naphthalen-2-yl)-N-methyl-1,4,5,6-tetracyclopenta[d]imidazol-5-carboxamide]: the half-maximal inhibitory concentration (IC50) was less than 30 nM.

As to `NC(=O)C1Cc2nc(-c3ccc4ccccc4c3)n(-c3ccnc(N[C@@H]4CCCN(C(=O)C5CC5)C4)n3)c2C1` (stereo partly drawn) [Compound 23c, 1-(2-(((R)-1-(cyclopropanecarbonyl)piperidin-3-yl)amino)pyrimidin-4-yl)-2-(naphthalen-2-yl)-1,4,5,6-tetracyclopenta[d]imidazol-5-carboxamide], the 50% inhibitory concentration (IC50) is less than 30 nM.

On to `CNC(=O)C1Cc2nc(-c3ccc(F)c(-c4ccc5ccccc5c4)c3)n(-c3ccnc(N[C@@H]4CCCN(C(=O)C5CC5)C4)n3)c2C1` (some centres unmarked) [Compound 27c], for which the 50% inhibitory concentration (IC50) is less than 30 nM.

On to `CCOC(=O)C1Cc2nc(-c3ccc4ccccc4c3)n(-c3ccnc(N[C@H]4CCN(C(=O)C5CC5)C4)n3)c2C1` (stereo partly drawn) [Compound 16c, ethyl 1-(2-(((S)-1-(cyclopropanecarbonyl)pyrrolidine-3-yl)amino)pyrimidin-4-yl)-2-(naphthalen-2-yl)-1,4,5,6-tetracyclopenta[d]imidazol-5-carboxylate], for which the IC50 is less than 30 nM.

The assay is the same for the next values; noted with them: Table 4.
`CCOC(=O)C1Cc2nc(-c3ccc4c(c3)OCO4)n(-c3ccnc(N[C@@H]4CCN(C(=O)C5CC5)C4)n3)c2C1` (stereo partly drawn) [Compound 17d, ethyl 2-(benzo[d][1,3]dioxol-5-yl)-1-(2-(((R)-1-(cyclopropanecarbonyl)pyrrolidine-3-yl)amino)pyrimidin-4-yl)-1,4,5,6-tetracyclopenta[d]imidazol-5-carboxylate] had an IC50 of less than 30 nM.

In turn, `NC(=O)C1Cc2nc(-c3ccc4c(c3)OCO4)n(-c3ccnc(N[C@H]4CCCN(C(=O)C5CC5)C4)n3)c2C1` (stereo partly drawn) [Compound 22d, 2-(benzo[d][1,3]dioxol-5-yl)-1-(2-(((S)-1-(cyclopropanecarbonyl)piperidin-3-yl)amino)pyrimidin-4-yl)-1,4,5,6-tetracyclopenta[d]imidazol-5-carboxamide] came in with a half-maximal inhibitory concentration (IC50) of less than 30 nM.

Consider `CCOC(=O)C1Cc2nc(-c3ccc4c(c3)OCO4)n(-c3ccnc(N[C@H]4CCN(C(=O)C5CC5)C4)n3)c2C1` (stereo partly drawn) [Compound 16d, ethyl 2-(benzo[d][1,3]dioxol-5-yl)-1-(2-(((S)-1-(cyclopropanecarbonyl)pyrrolidine-3-yl)amino)pyrimidin-4-yl)-1,4,5,6-tetracyclopenta[d]imidazol-5-carboxylate], for which the IC50 is greater than 1000 nM.

The assay is the same for the next values; noted with them: Table 5.
The compound `NC(=O)C1Cc2nc(-c3ccc4c(c3)CCO4)n(-c3ccnc(N[C@@H]4CCN(C(=O)C5CC5)C4)n3)c2C1` (stereo partly drawn) [Compound 21e, 1-(2-(((R)-1-(cyclopropanecarbonyl)pyrrolidine-3-yl)amino)pyrimidin-4-yl)-2-(2,3-dihydrobenzofuran-5-yl)-1,4,5,6-tetracyclopenta[d]imidazol-5-carboxamide] gave a half-inhibitory concentration (IC50) of less than 30 nM.

`CCOC(=O)C1Cc2nc(-c3ccc4c(c3)CCO4)n(-c3ccnc(N[C@@H]4CCN(C(=O)C5CC5)C4)n3)c2C1` (stereo partly drawn) [Compound 17e, ethyl 1-(2-(((R)-1-(cyclopropanecarbonyl)pyrrolidine-3-yl)amino)pyrimidin-4-yl)-2-(2,3-dihydrobenzofuran-5-yl)-1,4,5,6-tetracyclopenta[d]imidazol-5-carboxylate]: the IC50 is less than 30 nM.

The compound `CCOC(=O)C1Cc2nc(-c3ccc4c(c3)CCO4)n(-c3ccnc(N[C@H]4CCN(C(=O)C5CC5)C4)n3)c2C1` (stereo partly drawn) [Compound 16e, ethyl 1-(2-(((S)-1-(cyclopropanecarbonyl)pyrrolidine-3-yl)amino)pyrimidin-4-yl)-2-(2,3-dihydrobenzofuran-5-yl)-1,4,5,6-tetracyclopenta[d]imidazol-5-carboxylate] returned an IC50 greater than 1000 nM.

The compound `NC(=O)C1Cc2nc(-c3ccc4c(c3)CCO4)n(-c3ccnc(N[C@@H]4CCCN(C(=O)C5CC5)C4)n3)c2C1` (stereo partly drawn) [Compound 23e, 1-(2-(((R)-1-(cyclopropanecarbonyl)piperidin-3-yl)amino)pyrimidin-4-yl)-2-(2,3-dihydrobenzofuran-5-yl)-1,4,5,6-tetracyclopenta[d]imidazol-5-carboxamide] registered an IC50 of less than 30 nM.

In turn, `NC(=O)C1Cc2nc(-c3ccc4c(c3)CCO4)n(-c3ccnc(N[C@H]4CCN(C(=O)C5CC5)C4)n3)c2C1` (stereo partly drawn) [Compound 20e, 1-(2-(((S)-1-(cyclopropanecarbonyl)pyrrolidine-3-yl)amino)pyrimidin-4-yl)-2-(2,3-dihydrobenzofuran-5-yl)-1,4,5,6-tetracyclopenta[d]imidazol-5-carboxamide] displayed a half-inhibitory concentration (IC50) of less than 30 nM.

Compound `CCOC(=O)C1Cc2nc(-c3ccc4c(c3)CCO4)n(-c3ccnc(N[C@H]4CCCN(C(=O)C5CC5)C4)n3)c2C1` (stereo partly drawn) [Compound 18e, ethyl 1-(2-(((S)-1-(cyclopropanecarbonyl)piperidin-3-yl)amino)pyrimidin-4-yl)-2-(2,3-dihydrobenzofuran-5-yl)-1,4,5,6-tetracyclopenta[d]imidazol-5-carboxylate] displayed an IC50 of less than 30 nM.

For the compound `CCOC(=O)C1Cc2nc(-c3ccc4c(c3)CCO4)n(-c3ccnc(N[C@@H]4CCCN(C(=O)C5CC5)C4)n3)c2C1` (stereo partly drawn) [Compound 19e, ethyl 1-(2-(((R)-1-(cyclopropanecarbonyl)piperidin-3-yl)amino)pyrimidin-4-yl)-2-(2,3-dihydrobenzofuran-5-yl)-1,4,5,6-tetracyclopenta[d]imidazol-5-carboxylate], the IC50 is less than 30 nM.

(Values after patent US20240299386A1, “Novel imidazole derivatives having protein kinase inhibitory activity and uses thereof” (INDUSTRY-UNIVERSITY COOPERATION FOUNDATION HANYANG …, priority 2021, published 2024).)
